Laboratory results: patent US11180510B2, “Xanthine derivatives and uses thereof as inhibitors of bromodomains of BET proteins” (Centre national de la recherche scientifique, priority 2017, dated 2021)
Read-outs that look alike come from different tables or passages of the source.

Tests used:
[1] = biological target: T1, Brd2(BD2) (Homo sapiens, UniProt P25440); assay: HTRF BET selectivity profile, Brd2(BD2); type: binding; settings: read-out: Brd2(BD2) IC50
T1 construct: GST tagged bromodomain proteins were purchased from BPS Bioscience; purchased BPS Bioscience
T1 sequence (P25440 344-453 limits assumed): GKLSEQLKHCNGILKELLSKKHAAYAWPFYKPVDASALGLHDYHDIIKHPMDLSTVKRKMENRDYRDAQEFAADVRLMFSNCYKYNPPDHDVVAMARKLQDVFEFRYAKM
Experimental: (§1) HTRF assays were performed in white 384 Well Small Volume™ HiBase Polystyrene Microplates (Greiner) with a total working volume of 20 μL. Compounds were dispensed, with 100 nL per well (0.5% final DMSO), from a concentration stock of 10 mM in 100% DMSO and with serial DMSO dilutions, using an Echo® 550 robot from the Access Labcyte platform (Labcyte) and based on the transfer of liquid by acoustic wave. Then, 19.5 μL of buffer is added, using a Multidrop Combi (Thermo Fisher Scientific). […] All HTRF reagents (donor and acceptor) were purchased from CisBio Bioassays and reconstituted according to the supplier protocols. The peptide was purchased from Genic Bio Synthetic. The BRD4(1) protein was produced and purified in the laboratory.
(§2) Percentage of inhibition was calculated using the following equation: % inhibition=[(compound signal)−(min signal)]/[(max signal)−(min signal)]*100, where ‘max signal’ is the signal ratio with the compound vehicle alone (DMSO) and ‘min signal’ the signal ratio without peptide.
(§3) Selectivity profiles of bromodomain inhibitors were performed as described in HTRF screen section. […] HTRF detection reagents (EPIgeneous™ Binding Domain kits) were purchased from Cisbio Bioassays and used according to supplier's protocol. GST tagged bromodomain proteins were purchased from BPS Bioscience and histone peptide from Genic Bio Synthetic.

[2] = system: 61 bromodomains; assay: Thermal shift assay selectivity profile on 61 bromodomains; type: binding; settings: compound at 25 μM
Experimental: FIG. 3. Thermal Shift Assay (TSA) of 43c. The evaluation was performed on 61 bromodomains. A cut-off at +/−3.5° C. was set.
TSA “Bromoscan” assays (Reaction Biology) were performed in 384 well RT-PCR plate (BioRad) with a total working volume of 15 μL. The “BromoMelT™, containing the 61 GST- or His-tagged-bromodomains, SYPRO® Orange and a mix compounds as control, was purchased from Reaction Biology. For each point, 3 μL of protein (1×) and 12 μL master mix (buffer+SYPRO® Orange+compound at 25 μM or control mix compounds or DMSO (0.5%)) were mixed in plate. The plate was placed in a CFX384 RTQPC (BioRad), and heated 10 seconds at 25° C., then the temperature was increased from 25° C. to 90° C., by increment of 0.5° C. every 30 seconds. The fluorescence was recorded using FRET filters.

[3] = biological target: T2, Brd3(BD2) (Homo sapiens, UniProt Q15059); assay: HTRF BET selectivity profile, Brd3(BD2); type: binding
T2 construct: GST tagged bromodomain proteins were purchased from BPS Bioscience; purchased BPS Bioscience
T2 sequence (Q15059 306-415 limits assumed): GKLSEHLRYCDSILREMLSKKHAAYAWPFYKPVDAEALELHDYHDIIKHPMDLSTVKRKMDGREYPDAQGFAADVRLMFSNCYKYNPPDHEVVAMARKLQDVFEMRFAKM
Experimental: (§4) HTRF assays were performed in white 384 Well Small Volume™ HiBase Polystyrene Microplates (Greiner) with a total working volume of 20 μL. Compounds were dispensed, with 100 nL per well (0.5% final DMSO), from a concentration stock of 10 mM in 100% DMSO and with serial DMSO dilutions, using an Echo® 550 robot from the Access Labcyte platform (Labcyte) and based on the transfer of liquid by acoustic wave. Then, 19.5 μL of buffer is added, using a Multidrop Combi (Thermo Fisher Scientific). Finally, for each assay, 200 nL of master mix (protein+donor+acceptor) and 200 nL of peptide Is added in the assay wells according to the final concentration and buffer described in Table 3, using the Echo® 550 robot (Labcyte). The IC50 measurements were performed in triplicates (Table 2 and 3). All HTRF reagents (donor and acceptor) were purchased from CisBio Bioassays and reconstituted according to the supplier protocols. The peptide was purchased from Genic Bio Synthetic. The BRD4(1) protein was produced and purified in the laboratory. HTRF signals were measured, after a final incubation (3 h or 6 h or overnight at room temperature or 4° C., according to the bromodomain), using a PHERAstar FS (BMG Labtech) with an excitation filter at 337 nm and fluorescence wavelength measurement at 620 and 665 nm, an integration delay of 60 μs and an integration time of 500 μs. Results were analyzed with a two-wavelengths signal ratio: [intensity (665 nm)/intensity (620 nm)]*104.
as §2, §3

[4] = system: Jurkat cells; assay: Cell Titer-Glo cell viability assay, Jurkat; type: cell-based; settings: Homo sapiens, 72 h, mean of three experiments, NA = IC50 > maximal concentration used
Experimental: (§5) The human leukemia cell line Jurkat (ATCC® TIB-152) and Molm14 was maintained in RPMI-1640 medium or MEMα, respectively and supplemented both with 10% FBS at 37° C. and 5% CO2.
(§6) In antiproliferative assays, compounds were assayed for their growth inhibiting activity towards the described cancer cell lines using the Cell Titer-Glo Luminescent Cell Viability Assay as described by the manufacturer (Promega Corporation). Briefly, 10.000 cells were plated onto 96 well-plates (white with clear bottom (3610, Corning Costar)) in 90 μL media per well immediately before assay. 10 μL of compounds were added at different concentrations (ranging from 50 μM to 6 nM) to each well and cell cultures were incubated 37° C. during 72 h. Vehicle (DMSO) was used as negative control, JQ1 (a pan-BET inhibitor) was used as positive control and all compounds were tested in constant percentage of DMSO (1%). After addition of 50 μL Cell Titer-GLO, shaking 2 minutes and incubating at room temperature 10 minutes, the Luminescence was measured using a Centro luminometer LB960 (Berthold). Dose-response curves were generated and effective dose 50 values (EC50) were calculated using non-linear regression analysis (Graph Pad Prism).

[5] = biological target: T3, BRD4(BD1) (Homo sapiens, UniProt O60885); assay: HTRF assay, BRD4(BD1)/histone peptide interaction; type: binding; set-up: made in house; settings: for IC50: HTRF; for Ratio 4-1 vs 4-2: selectivity Brd4(BD1) vs Brd4(BD2), HTRF IC50
[6] = biological target: Brd3(BD1) (Homo sapiens, UniProt Q15059); assay: HTRF BET selectivity profile, Brd3(BD1); type: binding; set-up: GST tagged bromodomain proteins were purchased from BPS Bioscience; purchased BPS Bioscience; settings: for Ratio 3-1 vs 3-2: selectivity Brd3(BD1) vs Brd3(BD2), HTRF IC50
Sequence of Brd3(BD1) (Q15059 34-140 limits assumed): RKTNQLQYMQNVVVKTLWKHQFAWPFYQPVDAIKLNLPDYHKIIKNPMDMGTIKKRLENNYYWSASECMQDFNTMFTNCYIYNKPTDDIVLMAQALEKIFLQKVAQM
Experimental: as §1, §2, §3

[7] = biological target: T3, BRD4(BD1); assay: Isothermal Titration Calorimetry; type: binding; settings: ITC; read-out: Binding affinity (Kd) to BRD4(1) by Isothermal Titration Calorimetry
Experimental: FIG. 1. Isothermal Titration Calorimetry (ITC) of 43c. Thermogram (top) and non-linear least squares fit model of the integrated data (bottom) at 15° C. of Brd4 (BD1) […] as a function of the molar ratio of ligand to the protein.
ITC was used to evaluate the thermodynamics parameters of the binding between BRD4 (BD1) and the selected compounds. Titrations were carried out on a MicroCal ITC200 microcalorimeter (GE Healthcare, Piscataway, N.J.). Each experiment was designed using a titrant concentration (protein in the syringe generally between 100 and 400 μM) set 10 to 15 times the analyte concentration (compound in the cell generally between 10 and 40 μM) and using 13 injections at 25° C. A first small injection (generally 0.2 μL) was included in the titration protocol in order to remove air bubbles trapped in the syringe prior titration. Raw data were scaled after setting the zero to the titration saturation heat value. Integrated raw ITC data were fitted to a one site non-linear least squares fit model using the MicroCal Origin plugin as implemented in Origin 7 (Origin Lab). Finally, ΔG and TΔS values were calculated from the fitted ΔH and KA values using the equations ΔG=−R.T.inKA and ΔG=ΔH−TΔS.

[8] = biological target: T4, Brd4(BD2) (Homo sapiens, UniProt O60885); assay: HTRF BET selectivity profile, Brd4(BD2); type: binding
T4 construct: GST tagged bromodomain proteins were purchased from BPS Bioscience; purchased BPS Bioscience
Experimental: as §4, §2, §3

[9] = biological target: T5, Brd2(BD1) (Homo sapiens, UniProt P25440); assay: HTRF BET selectivity profile, Brd2(BD1); type: binding; settings: for IC50: read-out: Brd2(BD1) IC50; for Ratio 2-1 vs 2-2: selectivity Brd2(BD1) vs Brd2(BD2), HTRF IC50
T5 construct: GST tagged bromodomain proteins were purchased from BPS Bioscience; purchased BPS Bioscience
T5 sequence (P25440 74-180 limits assumed): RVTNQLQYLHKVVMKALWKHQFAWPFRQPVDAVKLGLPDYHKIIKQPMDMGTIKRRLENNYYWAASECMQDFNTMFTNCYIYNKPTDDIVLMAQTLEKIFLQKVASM
Experimental: as §1, §2, §3

[10] = biological target: T6, Brdt(BD1) (Homo sapiens, UniProt Q58F21); assay: HTRF BET selectivity profile, Brdt(BD1); type: binding
T6 construct: GST tagged bromodomain proteins were purchased from BPS Bioscience; purchased BPS Bioscience
Experimental: as §4, §2, §3

[11] = system: Molm14 cells; assay: Cell Titer-Glo cell viability assay, Molm14; type: cell-based; settings: Homo sapiens, MOLM-14, 72 h, mean of three experiments, NA = IC50 > maximal concentration used
Experimental: as §5, §6

[12] = biological target: T7, ATAD2 (Homo sapiens, UniProt Q6PL18); assay: HTRF selectivity profile, ATAD2 (non-BET bromodomain control); type: binding
T7 construct: GST tagged bromodomain proteins were purchased from BPS Bioscience; purchased BPS Bioscience
T7 sequence (Q6PL18 980-1092 limits assumed): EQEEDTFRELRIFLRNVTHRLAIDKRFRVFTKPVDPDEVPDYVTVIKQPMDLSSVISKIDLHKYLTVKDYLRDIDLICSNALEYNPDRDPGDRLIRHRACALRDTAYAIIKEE
Experimental: HTRF assays were performed in white 384 Well Small Volume™ HiBase Polystyrene Microplates (Greiner) with a total working volume of 20 μL. Compounds were dispensed, with 100 nL per well (0.5% final DMSO), from a concentration stock of 10 mM in 100% DMSO and with serial DMSO dilutions, using an Echo® 550 robot from the Access Labcyte platform (Labcyte) and based on the transfer of liquid by acoustic wave. Then, 19.5 μL of buffer is added, using a Multidrop Combi (Thermo Fisher Scientific). […] HTRF signals were measured, after a final incubation (3 h or 6 h or overnight at room temperature or 4° C., according to the bromodomain), using a PHERAstar FS (BMG Labtech) with an excitation filter at 337 nm and fluorescence wavelength measurement at 620 and 665 nm, an integration delay of 60 μs and an integration time of 500 μs. Results were analyzed with a two-wavelengths signal ratio: [intensity (665 nm)/intensity (620 nm)]*104.
Percentage of inhibition was calculated using the following equation: % inhibition=[(compound signal)−(min signal)]/[(max signal)−(min signal)]*100, where ‘max signal’ is the signal ratio with the compound vehicle alone (DMSO) and ‘min signal’ the signal ratio without peptide. […]

[13] = mean of three experiments, NA = IC50 > 50 μM, read-out: Brd4(8D1) IC50
[14] = triplicates, NA = IC50 > maximal concentration of compound used

| Structure (SMILES) | IC50 [1] [nM] | Bromodomain selectivity profile by thermal shift assay [2] | IC50 [3] [nM] | IC50 [4] [nM] | IC50 [5, 13] [nM] | IC50 ([5]; read-out: IC50 on BRD4(BD1) activity (concentration that inhibits protein-protein interaction by 50%), triplicates, NA = IC50 > maximal concentration of compound used) [nM] | Ratio 4-1 vs 4-2 [5] | IC50 [6] [nM] | Ratio 3-1 vs 3-2 [6] | Kd [7] [nM] | IC50 [8] [nM] | IC50 [9] [nM] | Ratio 2-1 vs 2-2 [9] | IC50 [10] [nM] | IC50 [11] [nM] | IC50 [12] [nM] | IC50 [5, 14] [nM] |
| --- | --- | --- | --- | --- | --- | --- | --- | --- | --- | --- | --- | --- | --- | --- | --- | --- | --- |
| CCn1cnc2c1c(=O)[nH]c(=O)n2Cc1ccc(CNS(=O)(=O)c2ccc3c(c2)CCCC(=O)N3)cc1 [Compound 27c] | 1610 | pan-BET selective | 3470 | 39500 | 283 | 283 | 10 | 456 | 8 | 129 | 2780 | 336 | 5 | 356 |  |  |  |
| CCn1cnc2c1c(=O)[nH]c(=O)n2Cc1ccc(CNS(=O)(=O)c2ccc(-c3ccccc3)cc2)cc1 [Compound 29b] | 16000 |  | 13500 | 26500 | 450 |  | 39 | 897 | 15 |  | 17700 | 3310 | 5 | 19700 | 10600 | 24600 | 450 |
| CCn1cnc2c1c(=O)[nH]c(=O)n2Cc1ccc(CNS(=O)(=O)c2ccc(Oc3ccccc3)cc2)cc1 [Compound 30c, N-(4-((7-ethyl-2,6-dioxo-1,2,6,7-tetrahydro-3H-purin-3-yl)methyl)benzyl)-4-phenoxybenzenesulfonamide] | 2490 | BRD4(1) and BRD3(1) selective | 3160 | 10300 | 510 |  | 9 | 633 | 5 | 641 | 4590 | 868 | 3 | 1180 | 9200 |  | 510 |
| CCn1cnc2c1c(=O)[nH]c(=O)n2Cc1ccc(CNS(=O)(=O)c2ccc(OCc3ccccc3)cc2)cc1 [Compound 31a] | 12800 | not pan-BET selective | 13500 | 19400 | 355 |  | 27 | 596 | 23 | 433 | 9710 | 1460 | 9 | 8510 | 1800 |  | 355 |
